Data: patent US10407396B2, “Crystalline form of selexipag” (Apotex Inc., priority 2017, dated 2019)

Experiments:
[1] = PXRD study of crystal form stability on storage; assay type: physicochemical; conditions: sealed vial under nitrogen atmosphere, room temperature and ambient humidity
Experimental: Selexipag Form APO-I can be characterized by a PXRD diffractogram comprising, among other peaks, characteristic peaks, expressed in degrees 2θ (±0.2°), at 7.5°, 12.4° and 21.7°. Preferably, the PXRD diffractogram further comprises at least three peaks, expressed in degrees 2θ (±0.2°), selected from the group consisting of 9.4°, 11.6°, 14.1°, 15.1°, 16.7°, 17.2°, 18.3°, 19.9°, 22.3° and 23.6°. More preferably, the PXRD diffractogram further comprises peaks, expressed in degrees 2θ (±0.2°), at 9.4°, 11.6°, 14.1°, 15.1°, 16.7°, 17.2°, 18.3°, 19.9°, 22.3° and 23.6°. PXRD studies of samples of Selexipag Form APO-I maintained under a nitrogen atmosphere in a sealed vial have shown that this crystal form is stable following storage at room temperature and ambient humidity for at least 14 days. PXRD diffractograms were recorded on a Bruker D8 Discover powder X-ray diffractometer (Bruker-AXS, Karlsruhe, Germany). The generator was a Micro-focus X-ray source (IMSTube: Cu tube with 1.54184 Å) with a voltage of 50 kV and current of 1.00 mA, using a divergence slit of 0.3 mm and collimator of 0.3 mm. For each sample, one frame was collected using a still scan with a Pilatus 3R-100 kA detector at the distance of 154.72 mm from the sample. Raw data were evaluated using the program EVA (Bruker-AXS, Karlsruhe, Germany).

[2] = drug substance in UPTRAVI, per AusPAR, cited from earlier work

## CC(C)N(CCCCOCC(=O)NS(C)(=O)=O)c1cnc(-c2ccccc2)c(-c2ccccc2)n1 [Selexipag Form APO-I, 2-{4-[N-(5,6-diphenylpyrazin-2-yl)-N-isopropylamino]butyloxy}-N-(methylsulfonyl)acetamide]
[1]
  crystal form stable following storage (PXRD): at least 14 days

## CC(C)N(CCCCOCC(=O)NS(C)(=O)=O)c1cnc(-c2ccccc2)c(-c2ccccc2)n1 [Form I, 2-{4-[N-(5,6-diphenylpyrazin-2-yl)-N-isopropylamino]butyloxy}-N-(methylsulfonyl)acetamide]
[2]; Class II = high permeability but low solubility
  Biopharmaceutics Classification System (BCS) class: Class II
[2]
  solubility behaviour: pH dependent solubility
